In patent US20250082651A1, “GANAXOLONE FOR USE IN TREATING GENETIC EPILEPTIC DISORDERS” (Marinus Pharmaceuticals, Inc., priority 2017, published 2025):
Where “and” joins values, the source holds several entries; their conditions need not be identical. Equal values may be shown once.

Legend:
[1] = biological target: human ether-a-go-go related gene (hERG) receptor (Homo sapiens, UniProt Q12809); assay: hERG safety pharmacology; assay type: binding; details: measured concentration of 70 nM (n=2)
Procedure: Safety pharmacology studies were conducted with ganaxalone.

[2] = Plasma concentrations in paediatric patients after oral dosing; assay type: in vivo, human; details: for Plasma concentrations: oral with food, 1 to 13 year old epilepsy patients
[3] = tested on: children with PCDH19 epilepsy; assay: Phase 2 open-label trial, PCDH19 cohort, seizure efficacy; assay type: in vivo, human
Text: Example 3 concerns a Phase 2 Multicenter, Open-Label Proof-of-Concept Trial of ganaxolone (GNX) in cohorts of children having genetic epilepsies (PCDH19, CDKL5 LGS, and CSWS) (ClinicalTrials.gov Identifier: NCT02358538). There were 11 female children with PCDH19 epilepsy between 5-16 years old with a confirmed genetic mutation. There were 6 female and 1 male children with confirmed genetic mutations in the CDKL5 cohort. There were 10 children in the Lennox Gastaut Syndrome cohort. Two children with CSWS were enrolled into the study. The study was conducted with 12 weeks baseline, and up to 26 weeks of treatment followed by a 52 week open label treatment. The primary efficacy was the percentage change in seizure frequency per 28 days relative to baseline calculated using daily seizure diary. [Time Frame: 26 weeks]. Secondary Outcome Measures were: Clinician Global Impression of Change score as assessed by questionnaire. [Time Frame: 26 Weeks]; Patient Global Impression of Change score as assessed by questionnaire. [Time Frame: 26 Weeks]; Evaluation of safety and tolerability of open-label ganaxolone as adjunctive therapy for uncontrolled seizures in children with rare genetic epilepsies, based on adverse event log and other clinical safety assessments. [Time Frame: 26 weeks]; Responder rates [Time Frame: 26 weeks]; and Seizure free days [Time Frame: 26 weeks].
Following screening and baseline evaluations, consenting patients enrolled into a 26-week study during which investigators were allowed to flexibly dose ganaxolone up to a dose of 1,800 mg/day for patients whose body weight was >30 kg, or up to 63 mg/kg/day for patients whose body-weight was <30 kg. The primary efficacy measure is % change from baseline in the 28-day seizure frequency count. Safety and tolerability were within the secondary objectives of the study.
In this study, oral ganaxolone suspension or capsules were administered up to a total of 63 mg/kg/day (maximum 1800 mg/day) over 2-4 weeks. About six-eight titration steps are used, depending on the size of the patient. Children larger than 30 kg may take the ganaxolone capsules. The ganaxolone oral suspension was administered through an oral dosing syringe three times daily. The ganaxolone capsules were administered twice daily. The patients experience better absorption of the ganaxolone with meals (milk).
In total, 11 female subjects between 4 and 15 years of age with a confirmed PCDH19 genetic mutation and uncontrolled seizures despite antiepileptic pharmacotherapy were enrolled. Ganaxolone was studied as an adjunctive treatment, administered as either PO liquid suspension or capsules according to the titration schedule in Tables 7 and 8, for 26 weeks after establishing up to 12 weeks of baseline seizure frequency. Primary and secondary endpoints were the same as for the CDKL5 deficiency disorder cohort.
After establishing baseline seizure frequency, qualifying subjects entered the study and were treated with open-label ganaxolone oral suspension or ganaxolone capsules at doses up to a maximum of 1800 mg/day for up to 6 months. Maximum study participation was 94 weeks: a screening period up to 12 weeks to establish baseline seizure frequency, up to 26 weeks of treatment, a 52 week extension for subjects who benefited from ganaxolone treatment, and up to 4 weeks of down titration period. […] Refractive cases of LGS or CSWS that had prior response to steroid or ACTH could also have been enrolled.
Ganaxolone oral suspension was administered through an oral dosing syringe by parent or legal guardian 3 times daily (TID), following the morning, noon, and evening meal or snack. Each dose was separated by a minimum of 4 hours and a maximum of 8 hours. A missed dose of ganaxolone could have been taken up to 4 hours before the next scheduled dose; otherwise, the missed dose was not to be given. […]

[4] = biological target: CYP3A4 (Homo sapiens, UniProt P08684); assay: In vitro clearance
Sequence of CYP3A4 (P08684 whole entry): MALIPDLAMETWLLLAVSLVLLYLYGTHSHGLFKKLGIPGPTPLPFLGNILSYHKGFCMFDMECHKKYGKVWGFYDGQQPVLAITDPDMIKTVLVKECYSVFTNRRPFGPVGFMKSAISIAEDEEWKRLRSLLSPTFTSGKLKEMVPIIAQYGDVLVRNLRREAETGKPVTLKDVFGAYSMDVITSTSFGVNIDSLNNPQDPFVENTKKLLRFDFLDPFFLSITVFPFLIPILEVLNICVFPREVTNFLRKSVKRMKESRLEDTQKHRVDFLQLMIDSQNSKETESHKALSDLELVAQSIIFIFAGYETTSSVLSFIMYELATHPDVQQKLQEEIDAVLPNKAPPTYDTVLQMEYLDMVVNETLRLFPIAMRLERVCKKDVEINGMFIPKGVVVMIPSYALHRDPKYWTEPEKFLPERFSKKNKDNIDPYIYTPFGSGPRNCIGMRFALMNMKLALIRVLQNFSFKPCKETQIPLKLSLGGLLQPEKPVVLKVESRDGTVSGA

[5] = oral suspension formulation, 3 to 18 mg/kg TID, patients aged 4 to 41 months
[6] = individual PCDH19 subjects 1-11
[7] = preliminary data, 11 PCDH19 patients

Sequence of human ether-a-go-go related gene (hERG) receptor (Q12809 whole entry): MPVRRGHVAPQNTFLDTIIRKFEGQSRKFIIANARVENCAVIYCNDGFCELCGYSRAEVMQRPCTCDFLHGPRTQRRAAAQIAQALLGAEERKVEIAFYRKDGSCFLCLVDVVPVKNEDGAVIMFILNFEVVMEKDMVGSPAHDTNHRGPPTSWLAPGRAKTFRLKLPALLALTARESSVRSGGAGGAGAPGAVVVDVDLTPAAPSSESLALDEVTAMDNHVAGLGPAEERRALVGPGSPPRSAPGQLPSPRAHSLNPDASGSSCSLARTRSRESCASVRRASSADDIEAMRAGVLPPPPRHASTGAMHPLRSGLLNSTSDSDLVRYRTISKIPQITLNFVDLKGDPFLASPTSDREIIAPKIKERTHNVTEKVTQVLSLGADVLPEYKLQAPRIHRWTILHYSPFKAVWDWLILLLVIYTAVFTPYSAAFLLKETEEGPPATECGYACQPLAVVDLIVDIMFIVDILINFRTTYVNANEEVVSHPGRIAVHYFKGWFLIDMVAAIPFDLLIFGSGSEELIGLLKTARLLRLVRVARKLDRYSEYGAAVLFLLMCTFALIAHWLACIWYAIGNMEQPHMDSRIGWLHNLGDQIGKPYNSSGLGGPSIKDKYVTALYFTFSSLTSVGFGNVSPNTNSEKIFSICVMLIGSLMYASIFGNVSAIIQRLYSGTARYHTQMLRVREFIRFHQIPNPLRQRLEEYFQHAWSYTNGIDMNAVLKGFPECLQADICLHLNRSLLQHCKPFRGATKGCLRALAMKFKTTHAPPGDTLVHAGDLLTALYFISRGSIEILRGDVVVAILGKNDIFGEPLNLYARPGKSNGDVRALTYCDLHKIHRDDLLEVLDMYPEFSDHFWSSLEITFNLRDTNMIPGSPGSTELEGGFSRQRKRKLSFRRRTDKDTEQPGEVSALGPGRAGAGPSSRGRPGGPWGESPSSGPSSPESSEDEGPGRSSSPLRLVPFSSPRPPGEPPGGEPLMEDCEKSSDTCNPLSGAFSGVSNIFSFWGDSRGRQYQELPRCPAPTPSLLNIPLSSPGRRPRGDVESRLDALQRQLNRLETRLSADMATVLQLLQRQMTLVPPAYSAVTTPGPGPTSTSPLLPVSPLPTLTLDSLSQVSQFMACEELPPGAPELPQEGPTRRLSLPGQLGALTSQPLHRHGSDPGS

In the case of CC(=O)[C@H]1CC[C@H]2[C@@H]3CC[C@H]4C[C@](C)(O)CC[C@]4(C)[C@H]3CC[C@]12C [Ganaxolone, 3α-hydroxy-3β-methyl-5α-pregnan-20-one], the “Interaction with hERG receptor” value [1] is reported as “did not interact”, the Plasma concentrations ([2]; 1 mg/kg TID) is reported as “up to 5.78 ng/mL” and the Trough concentrations ([2]; 12 mg/kg TID, humans about 0.6 to about 7 years old) is reported as “at least 38.5±37.4 ng/mL”. It also gave a Plasma concentrations ([2]; 12 mg/kg TID) of 10.3 to 16.1 ng/mL, a concentration at 4 weeks ([2]; human, plasma, oral, β-cyclodextrin formulation with food, 6 mg/kg BID to 12 mg/kg TID, 5-15 year old, read-out: Plasma concentrations at week 4) of at most 22.1 ng/mL and a concentration at 8 weeks ([2]; human, plasma, oral, β-cyclodextrin formulation with food, 6 mg/kg BID to 12 mg/kg TID, 5-15 year old, read-out: Plasma concentrations at week 8) of 5.7 to 43.7 ng/mL. The Cmax [2, 5] was “about 123 ng/mL”, the Trough concentration [2, 5] was “about 23 ng/mL” and the “Median change (decrease) in 28-day seizure frequency from baseline” value ([3]; PCDH19, ITT / all-comers n=11, 4 patients LOCF) was 26%. For the same compound, the “Median change (increase) from baseline in seizure-free days” value ([3]; PCDH19, ITT n=11) was 14%, the “Median % change seizure rates, biomarker-negative subjects” value ([3]; PCDH19, n=4, Allo-S>2,500 pg mL^−1, retrospective) was 247% and the “Seizure frequency at 6 months compared to baseline, biomarker-positive group” value ([3]; PCDH19, p=0.02, Wilcoxon) was “significantly improved”. For the same compound, the “Seizure frequency at 6 months compared to baseline, biomarker-negative (high Allo-S) group” value ([3]; PCDH19, p=0.25, Wilcoxon) was “did not improve”, the “28-day seizure frequency, sum of individual seizures and clusters, post-baseline 26-week open-label period, Mean (SD)” value ([3]; PCDH19 N=11, MITT) was 19.85 and the “28-day seizure frequency, sum of individual seizures and clusters, post-baseline 26-week open-label period, Median” value ([3]; PCDH19 N=11, MITT) was 5.42. The “28-day seizure frequency, sum of individual seizures and clusters, post-baseline through Month 3 (Day 91), Mean (SD)” value ([3]; PCDH19 N=11, MITT) was 19.82, the “28-day seizure frequency, sum of individual seizures and clusters, post-baseline through Month 3 (Day 91), Median” value ([3]; PCDH19 N=11, MITT) was 7.78 and the “Percent change from baseline (at Day 91), 28-day seizure frequency, sum of individual seizures and clusters, Mean (SD)” value ([3]; PCDH19 N=11, MITT) was 52.83%. The “Percent change from baseline (at Day 91), 28-day seizure frequency, sum of individual seizures and clusters, Median” value ([3]; PCDH19 N=11, MITT) was 25.98% and −25.98%, the “Percent change from baseline (at Week 26), 28-day seizure frequency, sum of individual seizures and clusters, Mean (SD)” value ([3]; PCDH19 N=11, MITT) was 46.36% and the “Percent change from baseline (at Week 26), 28-day seizure frequency, sum of individual seizures and clusters, Median” value ([3]; PCDH19 N=11, MITT) was 24.59% and −24.59%. For the same compound, the “% change seizure rate-12 month, Mean” value ([3]; PCDH19 cohort, N=7) was 51.34%, the “% change seizure rate-12 month, Median” value ([3]; PCDH19 cohort, N=7) was −8.57% and the “Post-baseline 28-day seizure rate-12 month, Mean” value ([3]; PCDH19 cohort, N=7) was 24.25. The “Post-baseline 28-day seizure rate-12 month, Median” value ([3]; PCDH19 cohort, N=7) was 19.44, the “% change seizure rate-3 month, Mean” value ([3]; PCDH19 cohort, N=11) was 105.59% and the “% change seizure rate-3 month, Median” value ([3]; PCDH19 cohort, N=11) was −7.37%. For the same compound, the “% change seizure rate-6 month, Mean” value ([3]; PCDH19 cohort, N=11) was 103.72%, the “% change seizure rate-6 month, Median” value ([3]; PCDH19 cohort, N=11) was −25.68% and the “Post-baseline 28-day seizure rate-3-month, Mean” value ([3]; PCDH19 cohort, N=11) was 84.51. For the same compound, the “Post-baseline 28-day seizure rate-3-month, Median” value ([3]; PCDH19 cohort, N=11) was 15.81, the “Post-baseline 28-day seizure rate-6 month, Mean” value ([3]; PCDH19 cohort, N=11) was 84.41 and the “Post-baseline 28-day seizure rate-6 month, Median” value ([3]; PCDH19 cohort, N=11) was 15.81. The “Mean percent change in 28-day total seizure frequency from baseline to Week 26” value ([3]; PCDH19 cohort, PP Population) was 60.99%, the “Median percent change in 28-day total seizure frequency from baseline to Week 26” value ([3]; PCDH19 cohort, PP Population) was 22.11% and the “Clinical global impression of improvement: much improved” value ([3]; PCDH19 cohort, end of Week 26) was 2 subjects. The “Clinical global impression of improvement: very much improved” value ([3]; PCDH19 cohort, end of Week 26) was 2 subjects, the “28-day individual seizure frequency, post-baseline 26-Week open-label period, Mean (SD)” value ([3]; PCDH19 n=11, MITT) was 7.28 and the “28-day individual seizure frequency, post-baseline 26-Week open-label period, Median” value ([3]; PCDH19 n=11, MITT) was 2.26. For the same compound, the “28-day individual seizure frequency, post-baseline through Month 3 (Day 91), Mean (SD)” value ([3]; PCDH19 n=11, MITT) was 7.29, the “28-day individual seizure frequency, post-baseline through Month 3 (Day 91), Median” value ([3]; PCDH19 n=11, MITT) was 2.49 and the “Percent change from baseline (at Day 91), 28-day individual seizure frequency, Mean (SD)” value ([3]; PCDH19 n=11, MITT) was −16.92%. For the same compound, the “Percent change from baseline (at Day 91), 28-day individual seizure frequency, Median” value ([3]; PCDH19 n=11, MITT) was −38.48%, the “Percent change from baseline (at Week 26), 28-day individual seizure frequency, Mean (SD)” value ([3]; PCDH19 n=11, MITT) was −23.95% and the “Percent change from baseline (at Week 26), 28-day individual seizure frequency, Median” value ([3]; PCDH19 n=11, MITT) was −34.48%. The “Median percent reduction in seizures” value ([3]; children with PCDH19 disorder) was 34%, the “28-day seizure free days % change at 3 months” value [3, 6] was 8% and 18% (2×) and 49% and −7% and −19% and −89% and 23% and 39% and 880% and 4% and the “28-day seizure free days % change at 6 months” value [3, 6] was 7% and 27% and 14% and 32% and −3% and 890% and 5%. For the same compound, the “28-day seizure rate % change at 3 months” value [3, 6] was −33.29% and 31.36% and −7.37% and −4.38% and 106.67% and 353.25% and 1020.50% and −100.00% and −78.83% and −74.17% and −52.30%, the “28-day seizure rate % change at 6 months” value [3, 6] was −33.22% and −25.68% and −5.26% and −2.56% and 140.00% and early term (2×) and rash and sz returned and −73.47% and −53.85% and the “Patients achieving greater than 50% seizure reduction that persisted for greater than 6 months” value [3, 7] was 4 patients. For the same compound, the “Patients with some degree of seizure reduction” value [3, 7] was 9 of 11 and the Enzyme driving clearance [4] was “driven mainly by CYP3A4”.
